Measurements: patent US20130183268A1, “DRUG COMBINATIONS WITH FLUORO-SUBSTITUTED OMEGA-CARBOXYARYL DIPHENYL UREA FOR THE TREATMENT AND PREVENTION OF DISEASES AND CONDITIONS” (BAYER HEALTHCARE LLC, priority 2010, published 2013)

How the values were obtained:
[1] = Metabolite profile, incubation of [14C]regorafenib with liver microsomes (man); assay type: in vitro ADME; settings: [14C]regorafenib 20 μM, liver microsomes 0.5 mg/mL, 60 min
Protocol: (§1) N-oxide (M-2), hydroxymethyl (M-3), de-methylated (M-4) and N-oxide-demethylated (M-5) metabolites of the fluoro-substituted diaryl urea of Formula (I) are shown below. They were identified as metabolites of regorafenib in vitro upon incubation with liver enzymes of various mammalian species (man, dog, rat, mouse). Studies reveal that its metabolites show high protein binding in man and animal species (data not shown). [table]

[2] = test system: PDGFR-beta phosphorylation in aortic smooth muscle cells; assay: pPDGFR-beta sandwich ELISA in AoSMC cells; assay type: cell-based; settings: PDGF-BB stimulated
Protocol: 100K P3-P6 Aortic SMC were plated in each well of 12-well cluster in 1000 μL volume/well of SGM-2 using standard cell culture techniques. Next day, cells were rinsed with 1000 μL D-PBS once, then serum starved in 500 μL SBM (smooth muscle cell basal media) with 0.1% BSA overnight. Compounds were diluted at a dose range from (10 μM to 1 nM in 10-fold dilution steps in DMSO. Final DMSO concentration 0.1%). Remove old media by inversion into the sink quickly then add 100 μL of each dilution to corresponding well of cells for 1 h at 37° C. Cells were then stimulated with 10 ng/mL PDGF-BB ligand for 7 min at 37° C. The media is decanted and 150 μL of isotonic lysis buffer with protease inhibitor tablet (Complete; EDTA-free) and 0.2 mM Na vanadate is added. Cells are lysed for 15 min at 4° C. on shaker in cold room. […]
Table 2 illustrates the results of two cellular assays for raf kinase activity, which are (i) inhibition of pERK in MDA-MB231 cells, a mechanistic readout of raf kinase activity, and (ii) a proliferation assay of MDA-MB231 cells, a functional assay of raf kinase activity. In addition, Table 2 illustrates the results of PDGFR driven phosphorylation of PDGFR-beta in aortic smooth muscle cells, which is a mechanistic readout of PDGFR kinase inhibition.

Flk-1 (murine VEGFR-2) = molecular target: T1, Flk-1 (murine VEGFR-2) (Mus musculus, UniProt P35918); assay: Flk-1 (murine VEGFR-2) biochemical assay (TR-FRET); settings: in words
T1 construct: 7 nM Flk-1 (kinase domain)
T1 sequence (P35918 832-1160 limits assumed): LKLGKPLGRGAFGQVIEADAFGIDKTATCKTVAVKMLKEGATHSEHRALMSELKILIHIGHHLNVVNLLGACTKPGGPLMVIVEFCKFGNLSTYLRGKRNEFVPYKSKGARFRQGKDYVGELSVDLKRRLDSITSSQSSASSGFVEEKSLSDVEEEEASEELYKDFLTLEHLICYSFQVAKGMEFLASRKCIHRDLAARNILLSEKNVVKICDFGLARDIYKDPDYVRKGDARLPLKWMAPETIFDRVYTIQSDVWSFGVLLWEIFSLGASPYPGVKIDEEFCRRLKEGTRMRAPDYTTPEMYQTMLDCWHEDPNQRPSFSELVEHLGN
Protocol: This assay was performed in 96-well opaque plates (Costar 3915) in the TR-FRET format. Reaction conditions are as follows: 10 μM ATP, 25 nM poly GT-biotin, 2 nM Eu-labelled phospho-Tyr Ab, 10 nM APC, 7 nM Flk-1 (kinase domain), 1% DMSO, 50 mM HEPES pH 7.5, 10 mM MgCl2, 0.1 mM EDTA, 0.015% BRIJ, 0.1 mg/mL BSA, 0.1% mercapto-ethanol). Reaction is initiated upon addition of enzyme. Final reaction volume in each well is 100 μL. Plates are read at both 615 and 665 nM on a Perkin Elmer Victor V Multilabel counter at about 1.5-2.0 hours after reaction initiation. Signal is calculated as a ratio: (665 nm/615 nm)*10000 for each well.
For IC50 generation for both PDGFR and Flk-1, compounds were added prior to the enzyme initiation. A 50-fold stock plate was made with compounds serially diluted 1:3 in a 50% DMSO/50% dH2O solution. […] The data were expressed as percent inhibition: % inhibition=100−((Signal with inhibitor-background)/(Signal without inhibitor-background))*100

[3] = Metabolite profile, incubation of [14C]regorafenib with liver microsomes (rat); assay type: in vitro ADME, Wistar rat; settings: [14C]regorafenib 20 μM, liver microsomes 0.5 mg/mL, 60 min
Protocol: as §1

[4] = Pharmacokinetics in patients after 160 mg regorafenib co-precipitate tablet; settings: analyte in plasma, 160 mg regorafenib co-precipitate tablet daily, day 21, n = 9, geometric mean
[5] = test system: MDA MB-231 human breast carcinoma cells; assay: MDA-MB231 proliferation assay; assay type: cell-based
Protocol: Human breast carcinoma cells (MDA MB-231, NCI) were cultured in standard growth medium (DMEM) supplemented with 10% heat-inactivated FBS at 37° C. in 5% CO2 (vol/vol) in a humidified incubator. Cells were plated at a density of 3000 cells per well in 90 μL growth medium in a 96 well culture dish. In order to determine T0h CTG values, 24 hours after plating, 100 μL of CellTiter-Glo Luminescent Reagent (Promega) was added to each well and incubated at room temperature for 30 minutes. Luminescence was recorded on a Wallac Victor II instrument. […]
Test compounds are dissolved in 100% DMSO to prepare 10 mM stocks. […] The cells with and without individual test compounds were incubated for 72 hours at which time ATP dependent luminescence was measured, as described previously, to yield T72h values. Optionally, the IC50 values can be determined with a least squares analysis program using compound concentration versus percent inhibition.
% Inhibition=[1−(T72h test−T0h)/(T72h ctrl−T0h)]×100, where • T72h test=ATP dependent luminescence at 72 hours in the presence of test compound • T72h ctrl=ATP dependent luminescence at 72 hours in the absence of test compound • T0h=ATP dependent luminescence at Time Zero

SMILES: CNC(=O)c1cc(Oc2ccc(NC(=O)Nc3ccc(Cl)c(C(F)(F)F)c3)c(F)c2)ccn1 [Example 1, 4{4-[3-(4-chloro-3-trifluoromethylphenyl)-ureido]-3-fluorophenoxy}-pyridine-2-carboxylic acid methylamide]
- % of radioactivity, Man [1]: 59.1%
- IC50 [2]: 0.0436 µM
- inhibition of VEGFR2 kinase (Flk-1 (murine VEGFR-2)): significant inhibition
- % of radioactivity, Wistar rat [3]: 75.7%
- AUC Day 21 [4]: 61.5 µg·h/mL
- Cmax Day 21 [4]: 4.17 µg/mL
- IC50 ([5]; Homo sapiens, MDA-MB-231 cells, 72 hours): 0.6 µM
- inhibition of proliferation ([5]; in words): significant inhibition
